One experiment concerns the target T1, P-selectin (Homo sapiens, UniProt P16109).
T1 sequence (P16109 whole entry): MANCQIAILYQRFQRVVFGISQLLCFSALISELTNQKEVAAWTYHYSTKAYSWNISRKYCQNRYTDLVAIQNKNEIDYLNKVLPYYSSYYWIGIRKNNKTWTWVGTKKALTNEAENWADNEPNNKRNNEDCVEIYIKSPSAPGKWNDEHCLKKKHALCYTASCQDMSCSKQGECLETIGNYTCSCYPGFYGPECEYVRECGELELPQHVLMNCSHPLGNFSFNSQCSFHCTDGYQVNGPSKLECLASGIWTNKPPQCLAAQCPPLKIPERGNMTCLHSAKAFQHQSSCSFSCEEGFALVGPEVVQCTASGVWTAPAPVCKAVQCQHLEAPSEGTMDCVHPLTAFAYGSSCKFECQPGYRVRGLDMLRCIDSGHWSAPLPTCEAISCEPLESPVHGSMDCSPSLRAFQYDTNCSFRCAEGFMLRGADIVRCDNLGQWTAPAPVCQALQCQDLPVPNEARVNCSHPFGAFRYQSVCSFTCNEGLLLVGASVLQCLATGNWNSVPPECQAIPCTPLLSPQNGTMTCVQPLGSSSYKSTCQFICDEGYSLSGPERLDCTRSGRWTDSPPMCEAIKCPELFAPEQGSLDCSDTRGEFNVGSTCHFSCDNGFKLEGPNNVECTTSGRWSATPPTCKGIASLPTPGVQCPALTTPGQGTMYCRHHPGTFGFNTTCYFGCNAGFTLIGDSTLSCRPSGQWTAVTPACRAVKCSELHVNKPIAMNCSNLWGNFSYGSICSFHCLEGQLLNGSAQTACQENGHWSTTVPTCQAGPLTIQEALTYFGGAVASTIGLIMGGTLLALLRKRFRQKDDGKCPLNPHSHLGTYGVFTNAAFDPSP
As to the kind of experiment: Antagonist activity at recombinant human P-selectin assessed as inhibition of P-selection binding to homodimer human PSGL-1-Fc interaction measured after 30 mins by surface plasmon resonance (SPR) spectroscopy. For orientation: SPR reads the build-up and loss of mass on a sensor chip optically.

The target of experiment [1] is T2, E-selectin (Homo sapiens) (UniProt P16581).
T2 sequence (whole entry): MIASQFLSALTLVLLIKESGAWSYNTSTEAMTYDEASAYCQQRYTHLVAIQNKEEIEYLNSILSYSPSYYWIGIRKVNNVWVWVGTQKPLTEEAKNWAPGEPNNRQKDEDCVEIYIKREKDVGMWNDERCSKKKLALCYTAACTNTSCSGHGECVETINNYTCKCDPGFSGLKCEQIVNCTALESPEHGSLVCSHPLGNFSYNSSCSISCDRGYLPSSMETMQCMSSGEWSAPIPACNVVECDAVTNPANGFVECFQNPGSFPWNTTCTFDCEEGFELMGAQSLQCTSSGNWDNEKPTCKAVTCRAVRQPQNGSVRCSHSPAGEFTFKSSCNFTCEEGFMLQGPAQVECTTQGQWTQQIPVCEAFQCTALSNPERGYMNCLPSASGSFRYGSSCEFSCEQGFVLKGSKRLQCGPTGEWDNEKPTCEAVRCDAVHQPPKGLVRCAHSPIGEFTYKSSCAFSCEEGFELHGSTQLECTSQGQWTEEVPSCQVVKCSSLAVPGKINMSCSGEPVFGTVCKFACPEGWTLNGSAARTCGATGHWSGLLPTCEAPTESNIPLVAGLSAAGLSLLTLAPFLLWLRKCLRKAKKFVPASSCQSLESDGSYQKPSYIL
As to the kind of experiment: Reduction in human HL-60 cell adhesion in E-Selectin Fc coated plates at 0.1 to 500 uM measured after 1 hr incubation by Cell-selectin adhesion assay. Type of experiment: cell-based. The conditions noted are these: filed as antagonist, dose 0.1-500 µM.

The test system of the next experiment is HL-60. As to the kind of experiment: Reduction in human HL-60 cell adhesion in E-Selectin Fc coated plates measured after 1 hr incubation by Cell-selectin adhesion assay. The conditions noted are these: filed as antagonist, dose 0.1-500 µM. Format: cell-based.

The structures appear in SMILES notation. Active and inactive are the calls of the source. The calls are words filed in the database; no cut-off is given here.

Take `CC(C)OC(=O)[C@H](O[C@@H]1O[C@@H](C)[C@@H](O)[C@@H](O)[C@@H]1O)[C@@H](O[C@@H]1O[C@H](CO)[C@H](O)[C@H](O[C@H](Cc2ccccc2)C(=O)O)[C@H]1OC(=O)c1ccccc1)C(=O)OC(C)C`: the half-maximal inhibitory concentration (IC50) on P-selectin is 162 µM.

Turning to `CC(=O)N[C@H]1[C@H]([C@H](O)[C@H](O)CO)O[C@@](O[C@H]2[C@@H](O)[C@@H](CO)O[C@@H](O[C@@H]([C@H](O[C@@H]3O[C@@H](C)[C@@H](O)[C@@H](O)[C@@H]3O)[C@H](C=O)NC(C)=O)[C@H](O)CO)[C@@H]2O)(C(=O)O)C[C@@H]1O`, the result in experiment [1] was Active. The Activity entry with HL-60 was “Dose-Dependent Effect”.

For the molecule `CC(C)OC(=O)[C@H](O[C@@H]1O[C@H](CO)[C@H](OC(=O)c2ccccc2)[C@H](O[C@H](Cc2ccccc2)C(=O)O)[C@H]1OC(=O)c1ccccc1)[C@@H](O[C@@H]1O[C@@H](C)[C@@H](O)[C@@H](O)[C@@H]1O)C(=O)O[C@@H](C)CCCn1cc(CCCCC(=O)Nc2ccc(OP(=O)(O)O)cc2)nn1`, on P-selectin, the IC50 stood at 290 µM. In addition, in experiment [1], the result was Active.

What is called IC50 is the midpoint of a concentration-inhibition curve.

Source of the values: ChEMBL document CHEMBL5523669, “Sialyl LewisX glycomimetics bearing an extended anionic chain targeting E- and P- selectin binding sites” (Bioorg Med Chem, 2024).
